Reference: ChEMBL document CHEMBL2086250, “Long-acting peptidomimetics based DPP-IV inhibitors” (Bioorg Med Chem Lett, 2012)
The source made the active and inactive calls. No cut-off for these calls is given here.

Legend:
Mus musculus [1] = experiment: Antidiabetic activity against C57BL/6J mouse assessed as reduction serum glucose AUC levels at 20 mg/kg, po measured up to 30 mins by IPGTT method; type: functional, organism-based; set-up: dose 20 mg/kg
Mus musculus [2] = experiment: Antidiabetic activity against C57BL/6J mouse assessed as reduction serum glucose AUC levels at 20 mg/kg, po measured up to 60 mins by IPGTT method; type: functional, organism-based; set-up: dose 20 mg/kg
Mus musculus [3] = experiment: Antidiabetic activity against C57BL/6J mouse assessed as reduction serum glucose AUC levels at 20 mg/kg, po measured up to 120 mins by IPGTT method; type: functional, organism-based; set-up: dose 20 mg/kg
Mus musculus [4] = experiment: Antidiabetic activity against C57BL/6J mouse assessed as reduction serum glucose AUC levels at 20 mg/kg, po measured up to 240 mins by IPGTT method; type: functional, organism-based; set-up: dose 20 mg/kg
[5] = Tmax in C57BL/6J mouse at 20 mg/kg, po administered as single dose; type: ADME, organism-based; set-up: dose 20 mg/kg, route oral; details: in vivo
[6] = Cmax in C57BL/6J mouse at 20 mg/kg, po administered as single dose; type: ADME, organism-based; set-up: dose 20 mg/kg, route oral; details: in vivo
[7] = Half life in C57BL/6J mouse at 20 mg/kg, po administered as single dose; type: ADME, organism-based; set-up: dose 20 mg/kg, route oral; details: in vivo
[8] = AUC (0 to alpha) in C57BL/6J mouse at 20 mg/kg, po administered as single dose; type: ADME, organism-based; set-up: dose 20 mg/kg, route oral; details: plasma
[9] = Oral bioavailability in C57BL/6J mouse at 20 mg/kg administered as single dose; type: ADME, organism-based; details: in vivo
[10] = Elimination rate constant in C57BL/6J mouse at 20 mg/kg administered as single dose; type: ADME, organism-based; set-up: dose 20 mg/kg; details: in vivo

| Tmax [5] [min] | Cmax [6] [ng/mL] | half-life [7] [min] | AUC [8] [ng·h/mL] | bioavailability [9] [%] | k el [10] [s⁻¹] | Compound | Activity (Mus musculus [1]) | Activity (Mus musculus [2]) | Activity (Mus musculus [3]) | Activity (Mus musculus [4]) |
| --- | --- | --- | --- | --- | --- | --- | --- | --- | --- | --- |
| 19.2 | 6200 | 52.8 | 6490 | 65 |  | N#Cc1ccc(NCCNCC(=O)N2CCC[C@H]2C#N)nc1 | Active | Active | inactive | inactive |
| 17.4 | 7100 | 479 | 14300 | 72.5 | 3.06e-05 | N#Cc1ccc(C(=O)NCCCC(=O)N2CCC[C@H]2C#N)cc1 | Active | Active | Active | Active |
| 16.8 | 5900 | 59.4 | 6890 | 63.1 | 0.000228 | N#C[C@@H]1CCCN1C(=O)CCCNC(=O)c1ccc(C(F)(F)F)cc1 | Active | Active | inactive | inactive |
